Experimental data: ChEMBL document CHEMBL5344449, “Retinestatin, a Polyol Polyketide from a Termite Nest-Derived Streptomyces sp” (2024)
Active and inactive are the calls of the source. The rule behind the calls is not given here.

Experiments:
Staphylococcus aureus [1] = experiment: Antibacterial activity against Staphylococcus aureus ATCC 25923 assessed as reduction in bacterial growth incubated for 24 hrs by CLSI protocol based analysis; type: functional
[2] = system: Mycobacterium tuberculosis; experiment: Antitubercular activity against wild type Mycobacterium tuberculosis mc2 6230 assessed as bacterial growth inhibition incubated for 5 days by resazurin microtiter assay; type: functional; settings: mc2 6230, 120 h, time 5 day
Aspergillus fumigatus = experiment: Antifungal activity against Aspergillus fumigatus HIC 6094 assessed as inhibition of fungal growth incubated for 48 hrs by CLSI protocol based analysis; type: functional
Klebsiella pneumoniae = experiment: Antibacterial activity against Klebsiella pneumoniae ATCC 10031 assessed as reduction in bacterial growth after 24 hrs by CLSI protocol based analysis; type: functional
Trichophyton rubrum = experiment: Antifungal activity against Trichophyton rubrum NBRC 9185 assessed as inhibition of fungal growth incubated for 96 hrs by CLSI protocol based analysis; type: functional
SH-SY5Y [3] = experiment: Neuroprotective activity against MPP-induced cytotoxicity in human SH-SY5Y cells assessed as increase in Bcl-xL mRNA expression level at 10 umol/L by RT-qPCR analysis; type: functional, cell-based; settings: dose 10.0 µmol/L
SH-SY5Y [4] = experiment: Neuroprotective activity against MPP-induced cytotoxicity in human SH-SY5Y cells assessed as decrease in Bak mRNA expression level at 10 umol/L by RT-qPCR analysis; type: functional, cell-based; settings: dose 10.0 µmol/L
Enterococcus faecalis = experiment: Antibacterial activity against Enterococcus faecalis ATCC 19433 assessed as reduction in bacterial growth after 24 hrs by CLSI protocol based analysis; type: functional
SH-SY5Y [5] = experiment: Neuroprotective activity against MPP-induced cytotoxicity in human SH-SY5Y cells assessed as decrease in cell death at 10 umol/L preincubated with compound for 24 hrs followed by MPP addition and measured after 24 hrs by MTT assay; type: functional, cell-based; settings: dose 10.0 µmol/L, time 48.0 hrs
[6] = system: Trichophyton mentagrophytes; experiment: Antifungal activity against Trichophyton mentagrophytes IFM 40996 assessed as inhibition of fungal growth incubated for 96 hrs by CLSI protocol based analysis; type: functional
Candida albicans = experiment: Antifungal activity against Candida albicans ATCC 10231 assessed as reduction in fungal growth incubated for 24 hrs by CLSI protocol based analysis; type: functional
Enterococcus faecium = experiment: Antibacterial activity against Enterococcus faecium ATCC 19434 assessed as reduction in bacterial growth after 24 hrs by CLSI protocol based analysis; type: functional
Staphylococcus aureus [7] = experiment: Antibacterial activity against methicillin-resistant Staphylococcus aureus ATCC 43300 assessed as reduction in bacterial growth incubated for 24 hrs by CLSI protocol based analysis; type: functional
Escherichia coli = experiment: Antibacterial activity against Escherichia coli ATCC 25922 assessed as reduction in bacterial growth after 24 hrs by CLSI protocol based analysis; type: functional
Salmonella enterica = experiment: Antibacterial activity against Salmonella enterica ATCC 14028 assessed as reduction in bacterial growth after 24 hrs by CLSI protocol based analysis; type: functional

CCC/C=C/C=C/C=C/[C@@H](O)C[C@]1(O)O[C@H](C[C@H](O)[C@@H](O)[C@H](O)[C@H]2OC(=O)[C@@H](C)[C@@H]2O)[C@@H](O)[C@H](O)[C@@H]1O
MIC (Staphylococcus aureus [1]): > 128 µg/mL
MIC [2]: > 128 µg/mL
MIC (Aspergillus fumigatus): > 128 µg/mL
MIC (Klebsiella pneumoniae): > 128 µg/mL
MIC (Trichophyton rubrum): > 128 µg/mL
Activity (SH-SY5Y [3]): Active
Activity (SH-SY5Y [4]): Active
MIC (Enterococcus faecalis): > 128 µg/mL
Activity (SH-SY5Y [5]): Active
MIC [6]: > 128 µg/mL
MIC (Candida albicans): > 128 µg/mL
MIC (Enterococcus faecium): > 128 µg/mL
MIC (Staphylococcus aureus [7]): > 128 µg/mL
MIC (Escherichia coli): > 128 µg/mL
MIC (Salmonella enterica): > 128 µg/mL
